The target of the assay is T1, SIRT1 (Homo sapiens, UniProt Q96EB6).
T1 sequence (Q96EB6 1-747): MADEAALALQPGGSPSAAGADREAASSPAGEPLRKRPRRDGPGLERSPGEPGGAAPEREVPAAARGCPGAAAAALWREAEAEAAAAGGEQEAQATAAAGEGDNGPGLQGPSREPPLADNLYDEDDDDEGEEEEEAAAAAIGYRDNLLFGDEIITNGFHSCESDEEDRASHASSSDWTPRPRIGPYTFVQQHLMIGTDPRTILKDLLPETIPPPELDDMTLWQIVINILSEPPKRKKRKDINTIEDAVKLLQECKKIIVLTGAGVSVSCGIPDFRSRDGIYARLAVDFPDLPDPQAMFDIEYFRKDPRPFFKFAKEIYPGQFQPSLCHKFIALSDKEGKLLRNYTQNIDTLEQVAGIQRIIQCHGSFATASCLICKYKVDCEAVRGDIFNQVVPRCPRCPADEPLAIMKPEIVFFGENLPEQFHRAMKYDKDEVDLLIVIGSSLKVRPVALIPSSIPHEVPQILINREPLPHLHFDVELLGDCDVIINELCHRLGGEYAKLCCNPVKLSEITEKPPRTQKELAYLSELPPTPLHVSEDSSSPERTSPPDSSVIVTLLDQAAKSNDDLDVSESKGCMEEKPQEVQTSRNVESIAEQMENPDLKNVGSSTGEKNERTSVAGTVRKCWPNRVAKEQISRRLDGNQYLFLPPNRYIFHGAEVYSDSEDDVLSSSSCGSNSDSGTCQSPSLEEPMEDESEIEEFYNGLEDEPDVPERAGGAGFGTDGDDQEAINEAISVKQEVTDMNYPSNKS
The experiment in a line: mass spectrometry based SIRT1 deacetylation assay (activation). Type of assay: biochemical. The settings on record: 0.5 μM peptide substrate, 120 μM βNAD+, 10 nM SIRT1, 25 min at 25° C.; for EC1.5 (concentration of test compound that results in 150% activation of SIRT1): NA = not active in the assay; for Emax: read-out: % FOLD ACT. (percent maximum fold activation of SIRT1). The text has this:
A mass spectrometry based assay was used to identify modulators of SIRT1 activity. The mass spectrometry based assay utilizes a peptide having 20 amino acid residues as follows: Ac-EE-K(biotin)-GQSTSSHSK(Ac)NleSTEG-K(5TMR)-EE-NH2 (SEQ ID NO: 1) wherein K(Ac) is an acetylated lysine residue and Nle is a norleucine. The peptide is labeled with the fluorophore 5TMR (excitation 540 nm/emission 580 nm) at the C-terminus. The sequence of the peptide substrate is based on p53 with several modifications. In addition, the methionine residue naturally present in the sequence was replaced with the norleucine because the methionine may be susceptible to oxidation during synthesis and purification.
Test compounds may be added to the reaction as described above. […] After the 25 minute incubation with SIRT1, 10 μL of 10% formic acid is added to stop the reaction. Reactions are sealed and frozen for later mass spec analysis. Determination of the mass of the substrate peptide allows for precise determination of the degree of acetylation (i.e. starting material) as compared to deacetylated peptide (product).
A control for inhibition of sirtuin activity is conducted by adding 1 μL of 500 mM nicotinamide as a negative control at the start of the reaction (e.g., permits determination of maximum sirtuin inhibition). A control for activation of sirtuin activity is conducted using 10 nM of sirtuin protein, with 1 μL of DMSO in place of compound, to determine the amount of deacetylation of the substrate at a given timepoint within the linear range of the assay. This timepoint is the same as that used for test compounds and, within the linear range, the endpoint represents a change in velocity.
For the above assay, SIRT1 protein was expressed and purified as follows. […] The protein was expressed by induction with 1 mM IPTG as an N-terminal His-tag fusion protein at 18° C. overnight and harvested at 30,000×g. Cells were lysed with lysozyme in lysis buffer (50 mM Tris-HCl, 2 mM Tris[2-carboxyethyl]phosphine (TCEP), 10 μM ZnCl2, 200 mM NaCl) and further treated with sonication for 10 min for complete lysis. The protein was purified over a Ni-NTA column (Amersham) and fractions containing pure protein were pooled, concentrated and run over a sizing column (Sephadex S200 26/60 global). The peak containing soluble protein was collected and run on an Ion-exchange column (MonoQ). Gradient elution (200 mM-500 mM NaCl) yielded pure protein. This protein was concentrated and dialyzed against dialysis buffer (20 mM Tris-HCl, 2 mM TCEP) overnight. The protein was aliquoted and frozen at −80° C. until further use.
Sirtuin modulating compounds that activated SIRT1 were identified using the assay described above and are shown below in Table 3. The EC1.5 values represent the concentration of test compounds that result in 150% activation of SIRT1. NT means that the compound was not tested using the indicated assay. NA means that the compound was not active in the indicated assay.

Turning to `O=C(Nc1ccccc1-c1nc2cc(CN3CCOCC3)cnc2s1)c1cccc(-c2ccccc2)c1` [Compound 1], the “EC1.5 (concentration of test compound that results in 150% activation of SIRT1)” value is 233 NM and the Emax amounted to 241%. For the compound `O=C(Nc1ccccc1-c1nc2cc(CN3CCOCC3)cnc2s1)c1cc(-c2ccccc2)no1` [Compound 2], the Emax turned out to be 132%. On to `O=C(Nc1ccccc1-c1nc2cc(CN3CCOCC3)cnc2s1)c1cc(-c2ccccc2)n[nH]1` [Compound 3], for which the “EC1.5 (concentration of test compound that results in 150% activation of SIRT1)” value was 1620 NM and the Emax worked out at 246%. For `O=C(Nc1ccccc1-c1nc2cc(CN3CCOCC3)cnc2s1)c1cccc(-c2ccccn2)c1` [Compound 4] the same measures were 504 NM and 321%. For `O=C(Nc1ccccc1-c1nc2cc(CN3CCOCC3)cnc2s1)c1cccc(-c2cccnc2)c1` [Compound 5] the same measures were 665 NM and 281%. For `O=C(Nc1ccccc1-c1nc2cc(CN3CCOCC3)cnc2s1)c1cccc(-c2ccncc2)c1` [Compound 6] the same measures were 746 NM and 274%. For `O=C(Nc1ccccc1-c1nc2cc(CN3CCNCC3)cnc2s1)c1cccc(-c2ccccn2)c1` [Compound 8], the “EC1.5 (concentration of test compound that results in 150% activation of SIRT1)” value was 340 NM and the Emax turned out to be 471%. For `O=C(Nc1ccccc1-c1nc2cc(CN3CCNCC3)cnc2s1)c1cccc(-c2cccnc2)c1` [Compound 9] the same measures were 416 NM and 392%.

Consider `O=C(Nc1ccccc1-c1nc2cc(CN3CCNCC3)cnc2s1)c1cccc(-c2ccncc2)c1` [Compound 10], for which the “EC1.5 (concentration of test compound that results in 150% activation of SIRT1)” value came out at 492 NM and the Emax amounted to 316%. For `NC1CCN(Cc2cnc3sc(-c4ccccc4NC(=O)c4cccc(-c5ccccc5)c4)nc3c2)CC1` [Compound 11] the same measures were 78 NM and 578%. The corresponding values for `NC1CCN(Cc2cnc3sc(-c4ccccc4NC(=O)c4cccc(-c5ccncc5)c4)nc3c2)CC1` [Compound 12] are 249 NM and 550%.

For the compound `O=C(Nc1ccccc1-c1nc2cc(CN3CCCC3)cnc2s1)c1cccc(-c2ccccc2)c1` [Compound 13], the “EC1.5 (concentration of test compound that results in 150% activation of SIRT1)” value turned out to be 584 NM and the Emax was 252%. The corresponding values for `CC(C)NCc1cnc2sc(-c3ccccc3NC(=O)c3cccc(-c4ccccn4)c3)nc2c1` [Compound 14] are 937 NM and 381%. For `C[C@@H]1CN(Cc2cnc3sc(-c4ccccc4NC(=O)c4cccc(-c5ccccn5)c4)nc3c2)C[C@H](C)N1` [Compound 15] the same measures were 627 NM and 531%. For `C[C@@H]1CN(Cc2cnc3sc(-c4ccccc4NC(=O)c4cccc(-c5cccnc5)c4)nc3c2)C[C@H](C)N1` [Compound 16] the same measures were 674 NM and 405%. As to `C[C@@H]1CN(Cc2cnc3sc(-c4ccccc4NC(=O)c4cccc(-c5ccncc5)c4)nc3c2)C[C@H](C)N1` [Compound 17], the “EC1.5 (concentration of test compound that results in 150% activation of SIRT1)” value came out at 683 NM and the Emax was 360%.

As to `NC1CCN(Cc2cnc3sc(-c4ccccc4NC(=O)c4cccc(-c5cccnc5)c4)nc3c2)CC1` [Compound 18], the “EC1.5 (concentration of test compound that results in 150% activation of SIRT1)” value was found to be 620 NM and the Emax was 457%.

As to `CC(C)NCc1cnc2sc(-c3ccccc3NC(=O)c3cccc(-c4ccccc4)c3)nc2c1` [Compound 19], the “EC1.5 (concentration of test compound that results in 150% activation of SIRT1)” value worked out at 722 NM and the Emax amounted to 198%. The corresponding values for `O=C(Nc1ccccc1-c1nc2cc(CN3CCCC3)cnc2s1)c1cccc(-c2ccccn2)c1` [Compound 20] are 687 NM and 224%. On to `NC1CCN(Cc2cnc3sc(-c4ccccc4NC(=O)c4cccc(-c5ccccn5)c4)nc3c2)CC1` [Compound 21], for which the “EC1.5 (concentration of test compound that results in 150% activation of SIRT1)” value is given as 162 NM and the Emax amounted to 906%. For `CC(C)NCc1cnc2sc(-c3ccccc3NC(=O)c3cccc(-c4ccncc4)c3)nc2c1` [Compound 22] the same measures were 2620 NM and 417%. For `CC(C)NCc1cnc2sc(-c3ccccc3NC(=O)c3cccc(-c4cccnc4)c3)nc2c1` [Compound 23] the same measures were 1950 NM and 241%. The corresponding values for `C[C@@H]1CN(Cc2cnc3sc(-c4ccccc4NC(=O)c4cccc(-c5ccccc5)c4)nc3c2)C[C@H](C)N1` [Compound 24] are 94 NM and 299%. As to `O=C(Nc1ccccc1-c1nc2cc(CN3CC[C@@H](F)C3)cnc2s1)c1cccc(-c2ccccc2)c1` [Compound 25], the “EC1.5 (concentration of test compound that results in 150% activation of SIRT1)” value was found to be 469 NM and the Emax was 203%.

In the case of `O=C(Nc1ccccc1-c1nc2cc(CN3CC[C@@H](F)C3)cnc2s1)c1cccc(-c2ccccn2)c1` [Compound 26], the “EC1.5 (concentration of test compound that results in 150% activation of SIRT1)” value came out at 455 NM and the Emax was found to be 192%. The corresponding values for `O=C(Nc1ccccc1-c1nc2cc(CN3CC[C@@H](F)C3)cnc2s1)c1cccc(-c2cccnc2)c1` [Compound 27] are 913 NM and 185%. `CC(C)NCc1cnc2sc(-c3ccccc3NC(=O)c3cncc(-c4ccccc4)c3)nc2c1` [Compound 28]: the “EC1.5 (concentration of test compound that results in 150% activation of SIRT1)” value is listed as 3590 NM and the Emax amounted to 162%. For `O=C(Nc1ccccc1-c1nc2cc(CN3C[C@@H]4C[C@H]3CN4)cnc2s1)c1cccc(-c2cccnc2)c1` [Compound 29] the same measures were 462 NM and 378%. With `O=C(Nc1ccccc1-c1nc2cc(CN3CC[C@@H](F)C3)cnc2s1)c1cccc(-c2ccc[n+]([O-])c2)c1` [Compound 30], the “EC1.5 (concentration of test compound that results in 150% activation of SIRT1)” value was 986 NM and the Emax amounted to 142%. For the compound `O=C(Nc1ccccc1-c1nc2cc(CN3CC[C@@H](F)C3)cnc2s1)c1cccc(-c2ncccn2)c1` [Compound 31], the “EC1.5 (concentration of test compound that results in 150% activation of SIRT1)” value was 1000 NM and the Emax came out at 168%. The corresponding values for `Cc1nc(-c2cccc(C(=O)Nc3ccccc3-c3nc4cc(CN5CC[C@@H](F)C5)cnc4s3)c2)cs1` [Compound 32] are 815 NM and 162%.

The values are drawn from patent US8268862B2, “Sirtuin modulating compounds” (Sirtris Pharmaceuticals, Inc., priority 2007, dated 2012).
